Data taken from patent US8604049B2, “4-dimethylamino-phenyl-substituted naphthyridines, and use thereof as medicaments” (Boehringer Ingelheim International GmbH, priority 2008, dated 2013).
Read-outs that look alike come from different tables or passages of the source.

Biological target: T1, Recombinant human Syk (GST-Syk kinase fusion protein) (Homo sapiens, UniProt P43405)
T1 construct: made in house
Assay: Syk Kinase Test (Kinase Glo luminescence)
Format: biochemical
Conditions: read-out: SYK inh % at 1 μM
Description: The catalytic activity of the GST-Syk kinase fusion protein was determined using the Kinase Glo® Luminescence Kinase test of Messrs Promega. In this homogeneous test the amount of ATP remaining after the kinase reaction has been carried out is quantified by a luciferin-luciferase reaction using luminescence. The luminescence signal obtained correlates with the amount of ATP still present and thus correlates inversely with the activity of the protein kinase.
GST-Syk was diluted to 6.0 nM in the test buffer and 10 μl of this dilution were used in the kinase test (final concentration of Syk=4 nM in a total volume of 15 μl).
Positive controls are the reaction mixtures that contain no test substance; negative controls are reaction mixtures that contain no kinase.
After 60 minutes, 10 μl Kinase-Glo® solution (Promega, Cat. #V6712) (heated to ambient temperature) are added to each well and incubation is continued for a further 15 minutes at ambient temperature.
Data Evaluation and Calculation:
The output file of the “MicroBeta TRILUX” is a text file that contains the well number and measurements obtained. […] Then from this the % inherent value for the measurement of each substance concentration was calculated using an “MS-Excel—VB macro”. […] The IC50 values were calculated from the % inhibition values using “GraphPadPrism” software (Version 5) (GraphPad Software Inc.).

[1] = 1 μM test substance, 4 nM GST-Syk

| Structure (SMILES) | inhibition at 1 µM [1] [%] | inhibition at 1 µM [%] |
| --- | --- | --- |
| Cc1cc(-c2cc3ncccc3c(O[C@H]3CC[C@@H](O)CC3)n2)ccc1N(C)C [Example 1] | 85.2 |  |
| Cc1cc(-c2cc3ncccc3c(O[C@H]3CC[C@H](O)CC3)n2)ccc1N(C)C [Example 2] | 71.9 |  |
| Cc1cc(-c2cc3ncccc3c(N3CC[C@@H](CN)C3)n2)ccc1N(C)C [Example 3, 5-(aminomethylpyrrolidin-1-yl)-7-(4-dimethylamino-3-methylphenyl)-[1,6]naphthyridine] |  | 88.2 |
| Cc1cc(-c2cc3ncccc3c(NCCc3cn[nH]c3)n2)ccc1N(C)C [Example 6] | 85.2 |  |
| Cc1cc(-c2cc3ncccc3c(-n3cc(CCO)cn3)n2)ccc1N(C)C [Example 12, 5-(4-hydroxyethyl-pyrazolyl)-7-(4-dimetyhlamino-3-methylphenyl)-[1,6]naphthyridine] |  | 105 |
| COc1nc(-c2ccc(N(C)C)c(C)c2)cc2ncccc12 [Example 17, 5-methoxy-7-(4-dimethylamino-3-methylphenyl)-[1,6]naphthyridine] |  | 73.2 |
| Cc1cc(-c2cc3ncccc3c(NC3CC3)n2)ccc1N(C)C [Example 20, 5-(cyclopropylamino)-7-(4-dimethylamino-3-methylphenyl)-[1,6]naphthyridine] |  | 90.2 |
